We go through one compound from patent US8748428B2, “Use of a PKC inhibitor” (Novartis AG, priority 2010, dated 2014).

Holding throughout (type): cell-based
Assay [1] deals with IL-6 secretion in HBL1 cells. The assay is described as follows: IL-6 secretion (Quantikine ELISA). To be noted: HBL1, ELISA of supernatant, 48 hours. Here is the method: (§1) The fact that IL-6 is secreted from cells allowed for monitoring of IL-6 levels in cell supernatants. IL-6 secretion was determined by Quantikine ELISA using supernatant from treated cells. Cells were washed and plated at 100,000 cells/well in 100 ul in fresh media in round-bottom 96-well plates (Corning, #3358). The cells were then treated with DMSO or inhibitors at concentrations ranging from 80 nM to 10 uM (2-fold dilutions), and incubated at 37° C. for 48 hours. Then the conditioned media was transferred to v-bottom 96-well plates (Nunc, #12565436). The level of IL-6 secretion was determined by the Quantkine colorimetric ELISA kit from (R & D Systems, #D6050), according to the manufacturer's instructions. For the IL-6 ELISA, the conditioned media was diluted 1:2 with fresh media (except ion: the HBL1 conditioned media was not diluted, it was used 1:1). In FIG. 2, IL-6 secretion for each dose is expressed as a percentage of IL-6 secretion from cells treated with DMSO.

The subject of assay [2] is IL-6 secretion in TMD8 cells. The assay is described as follows: IL-6 secretion (Quantikine ELISA). As to conditions: Homo sapiens; TMD8, ELISA of supernatant, 48 hours. Here is the method: as §1
The subject of a further assay is K422 cells. The assay is described as follows: Growth inhibition, CellTiter-Glo, 5 days. As to conditions: 120 h; GC DLBCL, no NFkB mutation; 5 days treatment; read-out: growth inhibitory IC50, K422. The source says: (§2) Two pharmacological PKC inhibitors: (i) the pan-PKC inhibitor, Sotrastaurin, also known as AEB071, and (ii) the PKCa/b-selective compound, 3-[2-chloro-7-[(dimethylamino)methyl]-1-naphthalenyl]-4-[7-[2-(2-methoxyethoxy)ethoxy]-1H-indol-3-yl]-1H-pyrrole-2,5-dione (referred to herein as “Compound B”), were used to evaluate the proliferation of several diffuse large B cell lymphoma (DLBCL) lines. The IKKb-selective inhibitors N-(6-chloro-7-methoxy-9H-β-carbolin-8-yl)-2-methylnicotinamide (referred to herein as “MLN120B”) and N-[(2R,6R)-2,6-dimethyl-4-piperidinyl]-4-(7-fluoro-1H-indol-3-yl)-2-pyrimidinamine (referred to herein as “Compound A”) were used as control compounds. ABC DLBCL cell lines (OCI-LY3, OCI-LY10, HBL1, U2932, TMD8, Su-DHL2) and GC DLBCL cell lines (Su-DHL4, DB, K-422) were treated for 5 days with PKC inhibitors (A) Sotrastaurin (AEB071) or (B) Compound B; IKKb inhibitors (C) MLN120B or (D) Compound A. Cells were plated in 96-well plates (Corning, #3358) at 5000 cells/well in 100 μL and treated with DMSO or inhibitors at concentrations ranging from 160 nM to 20 μM (2-fold dilutions). Following 5 days of treatment, cells were lysed with CellTiter-Glo® Luminescent Cell Viability Assay reagent (Promega, G7573), lysates were transferred to opaque 96-well plates (Corning, #3971), and luminescence signal was read using the Envision. Percent growth was calculated relative to median DMSO signal.
(§3) While all ABC DLBCL cell lines were sensitive to IKK inhibitors, their response to PKC inhibitors varied strongly (Table 1A below). The cell lines that are insensitive to PKC inhibitors, OCI-Ly3 and Su-DHL2, have reported mutations in CARD11 and A20, respectively. […] The fact that these oncogenic lesions are thought to function downstream of PKCβ in CBM-NFkB signaling provides a molecular rationale for their insensitivity. […] See, Compagno, M., et al, “Mutations of multiple genes cause deregulation of NF-κB in diffuse large B-cell lymphoma” Nature, 459 (7247), 717-722 (2009)). […] Tables 1A and 1B below show the growth inhibitory IC50 values, which were determined by measuring ATP concentration (Cell Titer Glo), for the indicated compounds in the indicated cell lines. IC50 values were determined as the concentration of compound that leads to 50% reduction of cell growth.

In the next assay the test system is TMD8 cells. Nature of the assay: Growth inhibition, CellTiter-Glo, 5 days. To be noted: Homo sapiens, TMD8, 120 h; ABC DLBCL, CD79B mutation; 5 days treatment; read-out: growth inhibitory IC50, TMD8.
Excerpt: as §2, §3

The subject of another assay is DB cells. The assay is described as follows: Growth inhibition, CellTiter-Glo, 5 days. As to conditions: Homo sapiens, 120 h, GC DLBCL, no NFkB mutation, 5 days treatment, read-out: growth inhibitory IC50, DB.
Excerpt: as §2, §3

A further assay deals with Su-DHL4 cells. The assay is described as follows: Growth inhibition, CellTiter-Glo, 5 days. As to conditions: Homo sapiens, SU-DHL-4, 120 h; GC DLBCL, no NFkB mutation; 5 days treatment; read-out: growth inhibitory IC50, Su-DHL4.
Excerpt: as §2, §3

In another assay the test system is Su-DHL2 cells. Nature of the assay: Growth inhibition, CellTiter-Glo, 5 days. As to conditions: Homo sapiens, SU-DHL-2, 120 h; ABC DLBCL, A20 mutation; 5 days treatment; read-out: growth inhibitory IC50, Su-DHL2.
Excerpt: as §2, §3

The next assay has as its system OCI-Ly10 cells. The assay is described as follows: Growth inhibition, CellTiter-Glo, 5 days. To be noted: Homo sapiens, OCI-Ly10, 120 h; ABC DLBCL, CD79A mutation; 5 days treatment; read-out: growth inhibitory IC50, OCI-Ly10.
Excerpt: as §2, §3

The next assay concerns OCI-Ly3 cells. The assay is described as follows: Growth inhibition, CellTiter-Glo, 5 days. To be noted: Homo sapiens, OCI-Ly3, 120 h; ABC DLBCL, CARD11 mutation; 5 days treatment; read-out: growth inhibitory IC50, OCI-Ly3.
Excerpt: as §2, §3

The next assay deals with HBL1 cells. The assay is described as follows: Growth inhibition, CellTiter-Glo, 5 days. To be noted: HBL1, 120 h; ABC DLBCL, CD79B mutation; 5 days treatment; read-out: growth inhibitory IC50, HBL1.
Excerpt: as §2, §3

A further assay concerns U2392 cells. The assay is described as follows: Growth inhibition, CellTiter-Glo, 5 days. To be noted: 120 h; ABC DLBCL, TAK1 mutation; 5 days treatment; read-out: growth inhibitory IC50, U2392.
Excerpt: as §2, §3

For the compound `CN1CCN(c2nc(C3=C(c4c[nH]c5ccccc45)C(=O)NC3=O)c3ccccc3n2)CC1` [AEB071, 3-(1H-Indol-3-yl)-4-[2-(4-methylpiperazin-1-yl)quinazolin-4-yl]-1H-pyrrole-2,5-dione], the concentration for half-maximal inhibition (IC50) in [1] is less than 0.2 µM; in assay [2], less than 0.2 µM; in the assay with K422 cells, greater than 20 µM; in the assay on TMD8 cells it was 0.2 µM; in the assay with DB cells, greater than 20 µM; with Su-DHL4 cells it was greater than 20 µM. The IC50 was greater than 20 µM in the assay on Su-DHL2 cells; 1.3 µM in the assay with OCI-Ly10 cells; greater than 20 µM in the assay with OCI-Ly3 cells; 0.5 µM in the assay on HBL1 cells; 5 µM with U2392 cells.
